In US20250305981A1, “SWITCHING PEPTIDE AND IMMUNOASSAY USING SAME” (OPTOLANE TECHNOLOGIES INC., priority 2021, published 2025):

Legend:
Anti-HBsAg antibody(g) = test: Fluorescence before/after antigen binding, peptide bound to immobilized antibody (Table 2); set-up: species or system goat; details: for fluorescence intensity at the bottom of the plate decreased by: after treatment with antigen HBsAg; for Bottom (B) of microplate After antigen binding, fluorescence intensity / Bottom (B) of microplate Before antigen binding, fluorescence intensity / Bottom (B) of microplate Change (%) / In solution (S) After antigen binding, fluorescence intensity / In solution (S) Before antigen binding, fluorescence intensity: antigen HBsAg, fluorescently labeled peptide
L2 peptide = test: FRET test of specific interaction between H1 and L2 peptides on microplate; type: binding; details: TAMRA-H1 and FAM-L2, concentration of H1 peptide varied
Description: (§1) Here, at the ends of the L1 and L2 peptides, a first fluorescent label, FAM (λex=488 nm, λem=532 nm) was modified, and at the ends of the H1 and H2 peptides, a second fluorescent label, TAMRA (λex=532 nm, λem=570 nm) was modified.

[1] = tested on: Fab region of rabbit anti-HRP antibodies; test: Papain treatment of immobilized antibody bound to fluorescently labeled switching peptide (FIG. 6B); type: binding; details: after vs before papain
Description: In the case of this experiment, after immobilization of the antibodies (rabbit anti-HRP antibodies) on the microplate, binding between the antibody and the switching peptide was induced by treatment with a fluorescently labeled switching peptide, the unbound switching peptide was removed, and then the Fab region was hydrolyzed from the immobilized antibodies by adding papain, which is a protease. Referring to FIG. 6A, the fluorescence at the bottom (B) of the microplate is expected to decrease after the papain reaction because the fluorescently labeled switching peptides are bound to the Fab region of antibodies, and the fluorescence in the solution is expected to increase because the Fab region to which the switching peptide is bound is hydrolyzed and dissolved into the solution. This prediction is proven to be true from the graphs of FIG. 6B.

[2] = molecular target: anti-HRP antibody from a rabbit; test: One-step immunoassay with fluorescently labeled peptides, varying HRP antigen concentration (FIG. 7); type: binding; details: estimated; HRP antigen 0.3 to 100 μM, fluorescence in solution; read-out: Equilibrium dissociation constant
Description: FIG. 7A is a schematic diagram for explaining an immunoassay method using fluorescently labeled peptide compounds of Example 1, and FIGS. 7B and 7C are graphs illustrating the fluorescence intensities in a solution and at a bottom of the microplate depending on a concentration of the antigen measured by the immunoassay method illustrated in FIG. 7A. In this experiment, an anti-HRP antibody from a rabbit immobilized on a microplate was used as the binding antibody and HRP was used as the antigen.
Referring to FIGS. 7A to 7C, as a result of performing immunoassay while varying the concentration of antigen HRP from 0.3 to 100 μM, for the four types of switching peptides (H1, H2, L1, L2), an increase in the fluorescence intensity in the solution was observed depending on the concentration of the antigen (HRP).
Equilibrium dissociation constants of the H1, H2, L1, and L2 peptides were estimated to be 1.65, 3.11, 3.29, and 1.48 μM, and the difference in the dissociation constant for each switching peptide means that each switching peptide has a different detection area for each antigen.

Anti-HRP antibody(r) = test: Fluorescence before/after antigen binding, peptide bound to immobilized antibody (Table 2); set-up: species or system rabbit; details: fluorescently labeled peptide
Anti-CRP antibody(r) = test: as above; set-up: species or system rabbit; details: fluorescently labeled peptide
Anti-hCG antibody(m) = test: as above; set-up: species or system mouse; details: fluorescently labeled peptide
[3] = Diffusion coefficient (Dox) of ferrocene-labeled switching peptides in CV analysis (FIG. 8C); type: physicochemical; details: compared with H1 and L2 peptides
Description: FIG. 8C is a graph obtained by measuring a diffusion coefficient (Dox) of the switching peptides of the present disclosure in CV analysis. […] Therefore, L1 and H2 peptides labeled with ferrocene may be optimal probes for electrochemical immunoassay.

[4] = Dynamic laser scattering (DLS) of binding antibody bound to ferrocene-labeled switching peptide (FIG. 8A); type: physicochemical; details: compared with antibody bound to L2 or H1 peptide
Procedure: FIG. 8A is a result obtained by performing dynamic laser scattering (DLS) to compare the hydrodynamic radius of the switching peptides of the present disclosure. Referring to FIG. 8A, it can be confirmed that DLS was performed using intensity measurement of scattered light under monochromatic laser light, and a hydrodynamic radius of the binding antibody bound to the L1 or H2 peptide was smaller than that of the bound antibody bound to the L2 or H1 peptide.

H2 peptide = test: FRET test of specific interaction between L1 and H2 peptides on microplate; type: binding; details: FAM-L1 and TAMRA-H2, concentration of L1 peptide varied
Description: as §1
Referring to FIG. 4A, the interaction between the L1 and H2 peptides was observed by changing the concentration of the L1 peptide, and the FRET intensity increased with increasing the concentration of the L1 peptide.

H2 peptide, sequence (as listed by the source): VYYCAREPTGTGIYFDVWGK

| Substance | fluorescence intensity at the bottom of the plate decreased by (Anti-HBsAg antibody(g)) | Bottom (B) of microplate After antigen binding, fluorescence intensity (Anti-HBsAg antibody(g)) | Bottom (B) of microplate Before antigen binding, fluorescence intensity (Anti-HBsAg antibody(g)) | Bottom (B) of microplate Change (%) (Anti-HBsAg antibody(g)) | In solution (S) After antigen binding, fluorescence intensity (Anti-HBsAg antibody(g)) | In solution (S) Before antigen binding, fluorescence intensity (Anti-HBsAg antibody(g)) | decrease of fluorescence intensity at the bottom of the microplate after papain treatment [1] | increase of fluorescence intensity in the solution after papain treatment [1] | Kd [2] | Bottom (B) of microplate After antigen binding, fluorescence intensity (Anti-HRP antibody(r)) | Bottom (B) of microplate Before antigen binding, fluorescence intensity (Anti-HRP antibody(r)) | Bottom (B) of microplate Change (%) (Anti-HRP antibody(r)) | In solution (S) After antigen binding, fluorescence intensity (Anti-HRP antibody(r)) | In solution (S) Before antigen binding, fluorescence intensity (Anti-HRP antibody(r)) | Bottom (B) of microplate After antigen binding, fluorescence intensity (Anti-CRP antibody(r)) | Bottom (B) of microplate Before antigen binding, fluorescence intensity (Anti-CRP antibody(r)) | Bottom (B) of microplate Change (%) (Anti-CRP antibody(r)) | In solution (S) After antigen binding, fluorescence intensity (Anti-CRP antibody(r)) | In solution (S) Before antigen binding, fluorescence intensity (Anti-CRP antibody(r)) | In solution (S) Change (%) (Anti-CRP antibody(r)) | further results |
| --- | --- | --- | --- | --- | --- | --- | --- | --- | --- | --- | --- | --- | --- | --- | --- | --- | --- | --- | --- | --- | --- |
| SYWIH WVKQR PGQGL EWIGE [H1, homology to FR2 region of the heavy chain] | 41.1% | 4618 | 11225 | −58.9% | 11453 | 2242 | 84.3% | 2,184% | 1650 nM | 1451 | 11840 | −87.7% | 21965 | 2596 | 3595 | 4912 | −26.8% | 5659 | 2242 | +152% | specific interaction (FRET intensity) (L2 peptide): specific interaction; Bottom (B) of microplate After antigen binding, fluorescence intensity (Anti-hCG antibody(m)): 1940; Bottom (B) of microplate Before antigen binding, fluorescence intensity (Anti-hCG antibody(m)): 5646; Bottom (B) of microplate Change (%) (Anti-hCG antibody(m)): −65.6%; In solution (S) After antigen binding, fluorescence intensity (Anti-hCG antibody(m)): 3921; In solution (S) Before antigen binding, fluorescence intensity (Anti-hCG antibody(m)): 1281; In solution (S) Change (%) (Anti-hCG antibody(m)): +206% |
| TYLEW YPQKP GQSPK LLIYK [L1, homology to FR2 region of the light chain] | 48.7% | 5388 | 11062 | −51.3% | 20501 | 2779 | 84.8% | 1,032% | 3290 nM | 1990 | 15608 | −87.3% | 12280 | 2687 | 3456 | 6719 | −48.6% | 6505 | 741 | +778% | diffusion coefficient (Dox) [3]: relatively higher; hydrodynamic radius of the binding antibody bound to the peptide [4]: smaller; specific interaction (FRET intensity) (H2 peptide): specific interaction; Bottom (B) of microplate After antigen binding, fluorescence intensity (Anti-hCG antibody(m)): 1777; Bottom (B) of microplate Before antigen binding, fluorescence intensity (Anti-hCG antibody(m)): 4630; Bottom (B) of microplate Change (%) (Anti-hCG antibody(m)): −61.6%; In solution (S) After antigen binding, fluorescence intensity (Anti-hCG antibody(m)): 3580; In solution (S) Before antigen binding, fluorescence intensity (Anti-hCG antibody(m)): 1248; In solution (S) Change (%) (Anti-hCG antibody(m)): +187% |
| VYYCA REPTG TGIYF DVWGK [H2, homology to FR3 or FR4 region of the heavy chain] | 63.9% | 18773 | 29367 | −36.1% | 9136 | 1784 | 58.7% | 2,356% | 3110 nM | 1806 | 122230 | −85.2% | 18128 | 2272 | 22205 | 22205 | −39.5% | 16311 | 2099 | +677% | diffusion coefficient (Dox) [3]: relatively higher; hydrodynamic radius of the binding antibody bound to the peptide [4]: smaller; Bottom (B) of microplate After antigen binding, fluorescence intensity (Anti-hCG antibody(m)): 23320; Bottom (B) of microplate Before antigen binding, fluorescence intensity (Anti-hCG antibody(m)): 23320; Bottom (B) of microplate Change (%) (Anti-hCG antibody(m)): −88.5%; In solution (S) After antigen binding, fluorescence intensity (Anti-hCG antibody(m)): 8545; In solution (S) Before antigen binding, fluorescence intensity (Anti-hCG antibody(m)): 1654; In solution (S) Change (%) (Anti-hCG antibody(m)): +416% |
| VYYCF QGSHV PFTK [L2, homology to FR3 or FR4 region of the light chain] | 35.2% | 9856 | 28002 | −64.8% | 15359 | 2279 | 72.5% | 2,452% | 1480 nM | 3208 | 12584 | −74.5% | 16135 | 2315 | 11236 | 20394 | −44.9% | 32187 | 3274 | +883% | Bottom (B) of microplate After antigen binding, fluorescence intensity (Anti-hCG antibody(m)): 3072; Bottom (B) of microplate Before antigen binding, fluorescence intensity (Anti-hCG antibody(m)): 33156; Bottom (B) of microplate Change (%) (Anti-hCG antibody(m)): −90.7%; In solution (S) After antigen binding, fluorescence intensity (Anti-hCG antibody(m)): 9402; In solution (S) Before antigen binding, fluorescence intensity (Anti-hCG antibody(m)): 1692; In solution (S) Change (%) (Anti-hCG antibody(m)): +456% |
